Blank lines part the entries; values can stand above or below the compound they belong to. Residues, ends and D or L forms follow the SMILES beside them.
Key:
Type in all cases: functional, cell-based
Design in all cases: scale not given: the % may be the effect or the level left
[1] = biological target: T1, Solute carrier family 15 member 2 (Homo sapiens) (UniProt Q16348); assay: TP_TRANSPORTER: inhibition of Gly-Sar uptake (Gly-Sar: 30 uM, Cephadroxil: 10000 uM) in PEPT2-expressing HeLa cells
T1 sequence (whole entry): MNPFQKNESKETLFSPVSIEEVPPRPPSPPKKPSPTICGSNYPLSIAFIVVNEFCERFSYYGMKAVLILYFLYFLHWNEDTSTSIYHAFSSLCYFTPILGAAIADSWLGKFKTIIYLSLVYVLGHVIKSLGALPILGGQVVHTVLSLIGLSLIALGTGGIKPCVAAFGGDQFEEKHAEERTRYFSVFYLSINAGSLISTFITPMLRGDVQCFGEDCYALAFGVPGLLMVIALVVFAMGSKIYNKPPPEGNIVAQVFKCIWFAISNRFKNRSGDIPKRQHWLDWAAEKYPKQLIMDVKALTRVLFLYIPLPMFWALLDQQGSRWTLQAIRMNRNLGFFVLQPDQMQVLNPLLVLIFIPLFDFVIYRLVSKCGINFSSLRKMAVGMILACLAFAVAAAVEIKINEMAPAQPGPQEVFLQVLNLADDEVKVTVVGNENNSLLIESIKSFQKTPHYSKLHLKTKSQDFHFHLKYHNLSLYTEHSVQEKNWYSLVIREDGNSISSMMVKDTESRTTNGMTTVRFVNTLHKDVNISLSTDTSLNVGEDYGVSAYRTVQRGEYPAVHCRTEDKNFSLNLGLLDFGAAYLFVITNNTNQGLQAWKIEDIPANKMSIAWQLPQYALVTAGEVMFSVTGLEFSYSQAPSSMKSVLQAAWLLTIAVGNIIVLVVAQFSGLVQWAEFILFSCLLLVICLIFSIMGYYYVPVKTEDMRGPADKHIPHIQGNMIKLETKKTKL

[2] = biological target: T1, Solute carrier family 15 member 2 (Homo sapiens); assay: TP_TRANSPORTER: inhibition of Gly-Sar uptake (Gly-Sar: 30 uM, Cephalexin: 10000 uM) in PEPT2-expressing HeLa cells
[3] = biological target: T1, Solute carrier family 15 member 2 (Homo sapiens); assay: TP_TRANSPORTER: inhibition of Gly-Sar uptake (Gly-Sar: 30 uM, Ala-Gly-Pro: 10000 uM) in PEPT2-expressing HeLa cells
[4] = biological target: T1, Solute carrier family 15 member 2 (Homo sapiens); assay: TP_TRANSPORTER: inhibition of Gly-Sar uptake (Gly-Sar: 30 uM, Gly-Phe: 10000 uM) in PEPT2-expressing HeLa cells

Activity [1]: 0%
SMILES: CC1=C(C(=O)O)N2C(=O)[C@@H](NC(=O)[C@H](N)c3ccc(O)cc3)[C@H]2SC1

Activity [2]: 0%
SMILES: CC1=C(C(=O)O)N2C(=O)[C@@H](NC(=O)[C@H](N)c3ccccc3)[C@H]2SC1

Activity [3]: 0%
SMILES: C[C@H](N)C(=O)NCC(=O)N1CCC[C@H]1C(=O)O (H-Ala-Gly-Pro-OH)

Activity [4]: 0%
SMILES: NCC(=O)N[C@@H](Cc1ccccc1)C(=O)O (H-Gly-Phe-OH)

Reference: ChEMBL document CHEMBL2074095, “Molecular cloning of PEPT 2, a new member of the H+/peptide cotransporter family, from human kidney” (Biochim Biophys Acta, 1995)
